# Like-named read-outs stand apart in the source and are kept apart here.
# Key:
# [1] = test system: peripheral nasal chemosensory receptors; details: androstadienone 27 picograms, muricin aglycone 30 picograms; adapted from Monti-Bloch et al. (1994); cited from earlier work
# humans = details: Grosser et al., 2000, cited from earlier work; for Effect on negative affect / negativity: administered nasally to humans
Compound,melting point,Depolarization of the electrogram of peripheral nasal chemosensory receptors [1],Effect on negative affect / negativity (humans),"Effect on negative affect / negativity (humans; listed as Androsta-4,16-dien-3-one)","Effect on social warmth and friendliness, personal well-being and arousal/excitement (humans; humans)"
C=C[C@H]1CC[C@H]2[C@@H]3CC[C@H]4CC(=O)C=C[C@]4(C)[C@H]3CC[C@]12C,124 to 126 °C,–,–,–,–
"C[C@@]12C=CC[C@H]1[C@@H]1CCC3=CC(=O)CC[C@]3(C)[C@H]1CC2 [androstadienone, androsta-4,16-dien-3-one]",–,robust depolarization,decreased negativity,reduction of negative affect,no effect

# Source: patent US20140045805A1, “Fragrance Compositions and Other Compositions Which Contain Naturally Occurring Substances Found in Corals” (priority 2007, published 2014)
